# System: human Kv3.1 channels
# Assay: Kv3.1 channel modulation, IonWorks Quattro planar array electrophysiology in HEK-hKv3.1 cells
# Type: cell-based
# Details: hKv3.1 HEK cells, -15 mV step
# Text: The ability of the compounds of the invention to modulate the voltage-gated potassium channel subtypes Kv3.3/Kv3.2/Kv3.1 may be determined using the following assay. Analogous methods may be used to investigate the ability of the compounds of the invention to modulate other channel subtypes.
# To assess compound effects on human Kv3.1 channels (hKv3.1): Human embryonic kidney (HEK)-hKv3.1 cell line is generated by transfecting HEK-293 cells with an expression vector with human Kv3.1 (NM_004976.4). Cells are cultured with MEM supplemented with 10% Heat-Inactivated FBS, 2 mM L-glutamine, 1% Penicillin-Streptomycin, and 0.6 mg/ml of Geneticin (G418). HEK-hKv3.1b cells were amplified in T175 cm2 flask at 37° C. with 5% CO2, using MEM amplification medium, containing the G418 selection antibiotic (0.6 mg/ml). Cells were detached every 3-4 days, using DPBS to wash twice the flask, then TrypLE to dislodge the cells, and re-plated at a density of 2-4×10^6 cells/flask.
# The day of the experiment, cells are removed from the incubator and the culture medium removed. […]
# Experiments are conducted at r.t. using IonWorks Quattro™ planar array electrophysiology technology (Molecular Devices Corp.) with PatchPlate™ PPC. […] Planar electrode hole resistances (Rp) are determined by applying a 10 mV voltage step across each well. […]
compound,measurement,setting,value
"CC[C@@H]1NC(=O)N(c2cnc(Oc3ccc(C)c4c3C3(CC3)CO4)cn2)C1=O [Example 15, (5S)-5-ethyl-3-[5-(7-methylspiro[2H-benzofuran-3,1′-cyclopropane]-4-yl)oxypyrazin-2-yl]imidazolidine-2,4-dione]",Kv3.1 pEC50,EC50 = 50% of maximum increase by reference compound,5.10
same,Kv3.1 max R %,normalised to maximum effect of reference compound (50 microM),136%
